# Data taken from US8143257B2, “Substituted phenols as active agents inhibiting VEGF production” (PTC Therapeutics, Inc., priority 2004, dated 2012).
# System: hypoxia-inducible endogenous VEGF expression
# Experiment: Assay to evaluate effect on hypoxia-inducible endogenous VEGF expression (VEGF ELISA, HeLa cells)
# Assay type: cell-based
# Settings: HeLa cells cultured 24-48 hours under hypoxic conditions (1% O2, 5% CO2); VEGF in conditioned media by ELISA; read-out: ELISA EC50 (effective concentration required to lower the amount of VEGF translation by 50%)
# Protocol: Assay to Evaluate Effect on Hypoxia-Inducible Endogenous VEGF Expression
# The ability of the compounds of the invention to modulate hypoxia-inducible endogenous VEGF expression is analyzed as follows. VEGF protein levels are monitored by an ELISA assay (R&D Systems). Briefly, HeLa cells are cultured for 24-48 hours under hypoxic conditions (1% O2, 5% CO2, balanced with nitrogen) in the presence or absence of a compound of the invention. The conditioned media is then assayed by ELISA, and the concentration of VEGF is calculated from the standard ELISA curve of each assay.
# A dose-response analysis is performed using the ELISA assay and conditions described above. A series of, e.g., seven different concentrations are analyzed. In parallel, a dose-response cytotoxicity assay is performed using Cell Titer Glo (Promega) under the same conditions as the ELISA to ensure that the inhibition of VEGF expression is not due to the cytotoxicity. Dose-response curves are plotted using percentage inhibition versus concentration of the compound, and EC50 and CC50 values are generated for each compound with the maximal inhibition set as 100% and the minimal inhibition as 0%.
# The most preferred compounds of the invention are those with μM values of 3 or less.
row,SMILES,EC50 [µM]
1,Cc1ccc2cc(OC(=O)N3CCC(C)CC3)ccc2n1 [4-Methyl-piperidine-1-carboxylic acid 2-methyl-quinolin-6-yl ester],> 30

# Same assay, conditions: Homo sapiens, HeLa, read-out: ELISA EC50 (effective concentration required to lower the amount of VEGF translation by 50%)
row,SMILES,EC50 [µM]
1,"NC(=O)C1(N2CCCCC2)CCN(C(=O)Oc2ccc3ccccc3c2Br)CC1 [4′-Carbamoyl-[1,4′]bipiperidinyl-1′-carboxylic acid 1-bromo-naphthalen-2-yl ester]",6.54
2,CN(C)C(=O)Oc1ccc2cc(Br)ccc2c1 [Dimethyl-carbamic acid 6-bromo-naphthalen-2-yl ester],> 10
3,"CC(=O)c1c(OC(=O)N2CCCN(C)CC2)ccc2ccccc12 [4-Methyl-[1,4]diazepane-1-carboxylic acid 1-acetyl-naphthalen-2-yl ester]",> 30

# Same assay, conditions: Homo sapiens; HeLa cells cultured 24-48 hours under hypoxic conditions (1% O2, 5% CO2); VEGF in conditioned media by ELISA; read-out: ELISA EC50 (effective concentration required to lower the amount of VEGF translation by 50%)
row,SMILES,EC50 [µM]
1,O=C(Nc1ccc2ccccc2c1Br)N1CCCCC1 [Piperidine-1-carboxylic acid (1-bromo-naphthalen-2-yl)-amide],> 10
2,"CC1CCCCN1C(=O)Oc1cc(Cl)c(Cl)cc1Cl (stereo not drawn) [2-Methyl-piperidine-1-carboxylic acid 2,4,5-trichloro-phenyl ester]",10.6
3,CC(=O)c1c(OC(=O)N2CCC(C)CC2)ccc2ccccc12 [4-Methyl-piperidine-1-carboxylic acid 1-acetyl-naphthalen-2-yl ester],1.85
4,"O=C(NCC1CCCCC1)Oc1ccc2cc(Br)ccc2c1Br [Cyclohexylmethyl-carbamic acid 1,6-dibromo-naphthalen-2-yl ester]",> 30
5,"O=C(Oc1cc(Cl)c(Cl)cc1Cl)N1CCCCC1 [Piperidine-1-carboxylic acid 2,4,5-trichloro-phenyl ester]",18.2
6,CS(=O)(=O)Nc1c(OC(=O)Oc2ccc3ccccc3c2NS(C)(=O)=O)ccc2ccccc12 [Carbonic acid bis-(1-methanesulfonylamino-naphthalen-2-yl) ester],4.3
7,"O=C(Oc1ccc2cc(Br)ccc2c1Br)N1CCOCC1 [Morpholine-4-carboxylic acid 1,6-dibromo-naphthalen-2-yl ester]",> 30
8,"Cc1ccc(OC(=O)N2CC(C)CC(C)C2)c(Br)c1 (stereo not drawn) [3,5-Dimethyl-piperidine-1-carboxylic acid 2-bromo-4-methyl-phenyl ester]",> 30
9,"O=C(Oc1c(Cl)cc(Cl)cc1Cl)N1CCc2ccccc2C1 [3,4-Dihydro-1H-isoquinoline-2-carboxylic acid 2,4,6-trichloro-phenyl ester]",> 30
10,"CC1CC(C)CN(C(=O)Oc2cc(Cl)c(Cl)cc2Cl)C1 (stereo not drawn) [3,5-Dimethyl-piperidine-1-carboxylic acid 2,4,5-trichloro-phenyl ester]",11.2
11,Cc1ccc2cc(OC(=O)N3CCCCC3)ccc2n1 [Piperidine-1-carboxylic acid 2-methyl-quinolin-6-yl ester],> 30
12,"CC1CC(C)CN(C(=O)Oc2ccc3ccccc3c2Br)C1 (stereo not drawn) [3,5-Dimethyl-piperidine-1-carboxylic acid 1-bromo-naphthalen-2-yl ester]",0.129
13,O=C(Nc1ccc2ccccc2c1Cl)N1CCCCC1 [Piperidine-1-carboxylic acid (1-chloro-naphthalen-2-yl)-amide],> 10
14,O=C(Oc1ccc2ccccc2c1)N1CCCCC1 [Piperidine-1-carboxylic acid naphthalen-2-yl ester],> 10
15,Cc1ccc2cc(OC(=O)N3CCN(c4ccccc4)CC3)ccc2n1 [4-Phenyl-piperazine-1-carboxylic acid 2-methyl-quionolin-6-yl ester],> 30
16,"O=C(Oc1ccc2cc(Br)ccc2c1Br)N1CCCCC1 [Piperidine-1-carboxylic acid 1,6-dibromo-naphthalen-2-yl ester]",> 30
17,"O=C(Oc1ccc2ccccc2c1Br)N1CCC2(CC1)OCCO2 [1,4-Dioxa-8-aza-spiro[4.5]decane-8-carboxylic acid 1-bromo-naphthalen-2-yl ester]",1.51
18,"Cc1ccc2cc(OC(=O)N3CCCc4ccccc43)ccc2n1 [3,4-Dihydro-2H-quinoline-1-carboxylic acid 2-methyl-quinolin-6-yl ester]",> 30
19,O=C(Oc1ccc2ccccc2c1Br)N1CCCCC1 [Piperidine-1-carboxylic acid 1-bromo-naphthalen-2-yl ester],0.27
20,CS(=O)(=O)Nc1c(OC(=O)N2CCN(c3ccccc3)CC2)ccc2ccccc12 [4-Phenyl-piperazine-1-carboxylic acid 1-methanesulfonylamino-naphthalen-2-yl ester],> 5
